From patent US20230111310A1, “CARBOXYLIC ACID DERIVATIVE-SUBSTITUTED IMINO ARYL COMPOUND, PREPARATION METHOD THEREFOR, HERBICIDAL COMPOSITION AND USE THEREOF” (Qingdao Kingagroot Chemical Compound Co., Ltd., priority 2020, published 2023)
Where two headings read alike, the source gives them in different places.

Columns and labels:
Assay type in all cases: in vivo
Setaria viridis = assay: Weeding effect in post-emergence stage; details: for Weeding effect in post-emergence stage, Setaria viridis: level of fresh weight growth control rate
Outline: (§1)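 Weeds were treated post-emergence at 2-3 leaves with compound doses from 7.5 up to 500 g/ha, formulated in acetone–Tween 80 with methyl oleate synergist. Efficacy was assessed as growth control after 3 weeks.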

Alopecurus japonicus = assay: Weeding effect in post-emergence stage; details: for Weeding effect in post-emergence stage, Alopecurus japonicus: level of fresh weight growth control rate
Outline: as §1

Eleusine indica = assay: Weeding effect in post-emergence stage; details: for Weeding effect in post-emergence stage, Eleusine indica: level of fresh weight growth control rate; for activity level (growth control rate) Eleusine indica: post-emergence, 7.5 g/ha, 3 weeks
Outline: as §1

Digitaria sanguinalis = assay: Weeding effect in post-emergence stage; details: for Weeding effect in post-emergence stage, Digitaria sanguinalis: level of fresh weight growth control rate
Outline: as §1

Abutilon theophrasti = assay: Weeding effect in post-emergence stage; details: level of fresh weight growth control rate
Outline: as §1

Amaranthus retroflexus = assay: Weeding effect in post-emergence stage; details: 7.5 g/ha, 3 weeks
Outline: as §1

Echinochloa crusgalli = assay: Weeding effect in post-emergence stage; details: for Weeding effect in post-emergence stage, Echinochloa crusgalli: level of fresh weight growth control rate; for activity level (growth control rate) Echinochloa crusgalli: post-emergence, 7.5 g/ha, 3 weeks
Outline: as §1

Veronica didyma Tenore = assay: Composition activity test, post-emergence foliage spray; details: for pest or weed control at 90 g/ha: B 90 g a.i./ha
Protocol: (§2) are as follows, and the others were purchased from reagent companies. The technical materials were all dissolved in acetone and diluted with an aqueous solution containing 0.1% emulsifier Tween-80. The dilution is performed as required.
(§3) Weeds were cultivated by a pot culture method. […] Full and uniform weed seeds were selected, soaked in warm water at 25° C. for 6 hours, and germinated in a 28° C. biochemical incubator (darkness). The weed seeds that had just germinated were evenly placed on the surface of the soil and then covered with 0.5-1 cm soil according to the sizes of seeds.
(§4) The culture was carried out in a controllable sunlight greenhouse at 20 to 30° C., in natural light, and relative humidity of 57% to 72%.
(§5) 3 pots with 20 weed seeds per pot were treated in one treatment with 4 replications per treatment.
(§6) The agents were used for only once in the experiment. In the stage of weeds with 1.5-2 leaves, the weeds were thinned out to maintain 10 weeds per pot and 30 weeds for each treatment, then continued to be cultured to Conyza Canadensis 10 cm in height, other weeds 3-4 leaves stage and treated.
(§7) The well-cultured weeds were evenly placed on a platform with an area of 0.5 m^2, and a solution of agents was sprayed on the stems and leaves thereof by the 3WP-2000-type walking spray tower at a dosage of 450 kg/ha and at a spray pressure of 0.3 MPa. After all the solution was sprayed, the valve was closed. After 30 seconds, the door of the spray tower was opened, and the nutritional bowl was taken out. Then the valve was opened, and the spray tube was cleaned by spraying 50 ml of water. After the treatment, the weeds were routinely cultured in a greenhouse.
(§8) A method for investigating absolute number was employed, wherein whole seedlings of survival weeds were cut off with a blade along the soil surface, and the fresh weight of the weeds was weighed with an analytical balance. For dead weeds, the fresh weight thereof was zero.
(§9) The investigation was performed after 21 days of the treatment for only once.
(§10) An optimum ratio of the two active ingredients was determined by the actual control effect, characteristics of herbicides, and balance of a corresponding formula. Wherein, in the formula, X represented the fresh weight inhibition rate of the active ingredient A in a dosage of P, and Y represented the fresh weight inhibition rate of the active ingredient B in a dosage of Q. The statistical results were shown in the table 6.

Lithospermum arvense = assay: as above
Protocol: as §2, §3, §4, §5, §6, §7, §8, §9, §10

Malachium aquaticum = assay: as above
Protocol: as §2, §3, §4, §5, §6, §7, §8, §9, §10

[1] = Veronica polita, foliar, read-out: Control effect (%) of B applied alone (B)
[2] = Dose 15 g/ha, fresh weight control rate level
[3] = Veronica polita, foliar, Veronica didyma Tenore, foliage, read-out: Control effect (%) of B applied alone (B)

## COC(=O)C(C)O/N=C/c1cc(-n2c(=O)cc(C(F)(F)F)n(C)c2=O)c(F)cc1Cl (racemic) [Compound 194]
Setaria viridis; Dose 7.5 g/ha
  Weeding effect in post-emergence stage, Setaria viridis: 5 (Level 5: growth control rate is above 85%)
Setaria viridis; Dose 15 g/ha
  Weeding effect in post-emergence stage, Setaria viridis: 5 (Level 5: growth control rate is above 85%)
Alopecurus japonicus; Dose 7.5 g/ha
  Weeding effect in post-emergence stage, Alopecurus japonicus: 4 (Level 4: growth control rate is greater than or equal to 60% and less than 85%)
Alopecurus japonicus; Dose 15 g/ha
  Weeding effect in post-emergence stage, Alopecurus japonicus: 5 (Level 5: growth control rate is above 85%)
Eleusine indica; Dose 7.5 g/ha
  Weeding effect in post-emergence stage, Eleusine indica: 5 (Level 5: growth control rate is above 85%)
Eleusine indica; Dose 15 g/ha
  Weeding effect in post-emergence stage, Eleusine indica: 5 (Level 5: growth control rate is above 85%)
Eleusine indica
  activity level (growth control rate) Eleusine indica: 4 (Level 4: growth control rate is greater than or equal to 60% and less than 85%)
Digitaria sanguinalis; Dose 7.5 g/ha
  Weeding effect in post-emergence stage, Digitaria sanguinalis: 5 (Level 5: growth control rate is above 85%)
Digitaria sanguinalis; Dose 15 g/ha
  Weeding effect in post-emergence stage, Digitaria sanguinalis: 5 (Level 5: growth control rate is above 85%)
Abutilon theophrasti; Dose 7.5 g/ha
  Weeding effect in post-emergence stage, Abutilon theophrasti: 5 (Level 5: growth control rate is above 85%)
Abutilon theophrasti; Dose 15 g/ha
  Weeding effect in post-emergence stage, Abutilon theophrasti: 5 (Level 5: growth control rate is above 85%)
Amaranthus retroflexus
  activity level (growth control rate) Amaranthus retroflexus: 5 (Level 5: growth control rate is above 85%)
Echinochloa crusgalli; Dose 7.5 g/ha
  Weeding effect in post-emergence stage, Echinochloa crusgalli: 5 (Level 5: growth control rate is above 85%)
Echinochloa crusgalli; Dose 15 g/ha
  Weeding effect in post-emergence stage, Echinochloa crusgalli: 5 (Level 5: growth control rate is above 85%)
Echinochloa crusgalli
  activity level (growth control rate) Echinochloa crusgalli: 4 (Level 4: growth control rate is greater than or equal to 60% and less than 85%)

## COC(=O)[C@H](C)O/N=C/c1cc(-n2c(=O)n(C)c(=S)n(C)c2=O)c(F)cc1Cl [1(S)]
Eleusine indica
  activity level (growth control rate) Eleusine indica: 1 (Level 1: growth control rate is greater than or equal to 5% and less than 20%)
Amaranthus retroflexus
  activity level (growth control rate) Amaranthus retroflexus: 1 (Level 1: growth control rate is greater than or equal to 5% and less than 20%)
Echinochloa crusgalli
  activity level (growth control rate) Echinochloa crusgalli: 1 (Level 1: growth control rate is greater than or equal to 5% and less than 20%)

## O=C(O)COc1ccc(Cl)cc1Cl [2,4-dichlorophenoxy acetic acid]
Veronica didyma Tenore; [1]
  pest or weed control at 150 g/ha: 32.6%

## Cc1cc(Cl)ccc1OCC(=O)O [2-methyl-4-chlorophenoxy acetic acid, 2-methyl-4-chlorophenoxyacetic acid]
Veronica didyma Tenore; [1]
  pest or weed control at 150 g/ha: 39.3%

## COC(=O)[C@H](C)O/N=C/c1cc(-n2c(=O)cc(C(F)(F)F)n(C)c2=O)c(F)cc1Cl [194(S)]
Eleusine indica
  activity level (growth control rate) Eleusine indica: 1 (Level 1: growth control rate is greater than or equal to 5% and less than 20%)
Amaranthus retroflexus
  activity level (growth control rate) Amaranthus retroflexus: 2 (Level 2: growth control rate is greater than or equal to 20% and less than 40%)
Echinochloa crusgalli
  activity level (growth control rate) Echinochloa crusgalli: 1 (Level 1: growth control rate is greater than or equal to 5% and less than 20%)

## COC(=O)CO/N=C/c1cc(-n2c(=O)cc(C(F)(F)F)n(C)c2=O)c(F)cc1Cl [Control compound D, reference compound]
Setaria viridis; [2]
  Weeding effect in post-emergence stage, Setaria viridis (level): 3 (Level 3: growth control rate is greater than or equal to 40% and less than 60%)
Alopecurus japonicus; [2]
  Weeding effect in post-emergence stage, Alopecurus japonicus (level): 2 (Level 2: growth control rate is greater than or equal to 20% and less than 40%)
Eleusine indica; [2]
  Weeding effect in post-emergence stage, Eleusine indica (level): 3 (Level 3: growth control rate is greater than or equal to 40% and less than 60%)
Eleusine indica
  activity level (growth control rate) Eleusine indica: 2 (Level 2: growth control rate is greater than or equal to 20% and less than 40%)
Digitaria sanguinalis; [2]
  Weeding effect in post-emergence stage, Digitaria sanguinalis (level): 3 (Level 3: growth control rate is greater than or equal to 40% and less than 60%)
Amaranthus retroflexus
  activity level (growth control rate) Amaranthus retroflexus: 2 (Level 2: growth control rate is greater than or equal to 20% and less than 40%)
Echinochloa crusgalli; [2]
  Weeding effect in post-emergence stage, Echinochloa crusgalli (level): 4 (Level 4: growth control rate is greater than or equal to 60% and less than 85%)
Echinochloa crusgalli
  activity level (growth control rate) Echinochloa crusgalli: 1 (Level 1: growth control rate is greater than or equal to 5% and less than 20%)

## C[C@@H](Oc1nc(F)c(Cl)c(N)c1Cl)C(=O)OCC1CCCO1 (some centres unmarked) [Cpd B2]
Veronica didyma Tenore; [3]
  pest or weed control at 90 g/ha: 42.1%

## Nc1cc(Cl)nc(C(=O)O)c1Cl [aminopyralid]
Veronica didyma Tenore; Veronica didyma Tenore, foliage, B 30 g a.i./ha
  Control effect (%) of B applied alone (B): 32.2%

## CCOC(=O)C(Cl)Cc1cc(-n2nc(C)n(C(F)F)c2=O)c(F)cc1Cl (centres unmarked) [carfentrazone-ethyl]
Lithospermum arvense; B 4.5 g a.i./ha
  Control effect (%) of B applied alone (B): 27.2%

## O=C(O)c1nc(Cl)ccc1Cl [clopyralid]
Veronica didyma Tenore; Veronica polita, foliar, Veronica didyma Tenore, foliage, B 45 g a.i./ha, read-out: Control effect (%) of B applied alone (B)
  pest or weed control at 45 g/ha: 28.9%

## COc1c(Cl)ccc(Cl)c1C(=O)O [dicamba]
Veronica didyma Tenore; Veronica polita, foliar, Veronica didyma Tenore, foliage, B 150 g a.i./ha, read-out: Control effect (%) of B applied alone (B)
  pest or weed control at 150 g/ha: 29.7%

## COc1c(Cl)ccc(-c2nc(C(=O)OCc3ccccc3)c(Cl)c(N)c2F)c1F [florpyrauxifen benzyl]
Veronica didyma Tenore; Veronica didyma Tenore, foliage, B 15 g a.i./ha
  Control effect (%) of B applied alone (B): 50.3%

## C#CCN1C(=O)COc2cc(F)c(N3C(=O)C4=C(CCCC4)C3=O)cc21 [flumioxazin]
Lithospermum arvense; B 7.5 g a.i./ha
  Control effect (%) of B applied alone (B): 29.4%

## Nc1c(Cl)c(F)nc(OCC(=O)O)c1Cl [fluroxypyr]
Veronica didyma Tenore; Veronica polita, foliar, Veronica didyma Tenore, foliage, B 60 g a.i./ha, read-out: Control effect (%) of B applied alone (B)
  pest or weed control at 60 g/ha: 39.3%

## COC(=O)c1nc(-c2ccc(Cl)c(OC)c2F)cc(N)c1Cl [halauxifen-methyl]
Veronica didyma Tenore; Veronica didyma Tenore, foliage, B 3 g a.i./ha
  Control effect (%) of B applied alone (B): 35.6%

## COC(=O)c1c(Cl)nn(C)c1S(=O)(=O)NC(=O)Nc1nc(OC)cc(OC)n1 [halosulfuron methyl]
Malachium aquaticum; B 9 g a.i./ha
  Control effect (%) of B applied alone (B): 36.4%

## COCc1cnc(C2=NC(C)(C(C)C)C(=O)N2)c(C(=O)O)c1 (centres unmarked) [imazamox]
Malachium aquaticum; B 15 g a.i./ha
  Control effect (%) of B applied alone (B): 27.2%

## COc1cc(OC)nc(NC(=O)NS(=O)(=O)c2ncccc2C(=O)N(C)C)n1 [nicosulfuron]
Malachium aquaticum; B 3 g a.i./ha
  Control effect (%) of B applied alone (B): 31.4%

## CC(C)Oc1cc(-n2nc(C(C)(C)C)oc2=O)c(Cl)cc1Cl [oxadiazon]
Lithospermum arvense; B 90 g a.i./ha
  Control effect (%) of B applied alone (B): 24.3%

## CCOc1cc(Oc2ccc(C(F)(F)F)cc2Cl)ccc1[N+](=O)[O-] [oxyfluorfen]
Lithospermum arvense; B 60 g a.i./ha
  Control effect (%) of B applied alone (B): 31.5%

## Nc1c(Cl)c(Cl)nc(C(=O)O)c1Cl [picloram]
Veronica didyma Tenore; Veronica polita, foliar, Veronica didyma Tenore, foliage, B 300 g a.i./ha, read-out: Control effect (%) of B applied alone (B)
  pest or weed control at 300 g/ha: 43.6%

## C#CCN(C)c1c(C#N)cnn1-c1nn2c(c1Cl)CCCC2 [pyraclonil]
Lithospermum arvense; B 75 g a.i./ha
  Control effect (%) of B applied alone (B): 37.9%

## CCS(=O)(=O)c1cccnc1S(=O)(=O)NC(=O)Nc1nc(OC)cc(OC)n1 [rimsulfuron]
Malachium aquaticum; B 1.5 g a.i./ha
  Control effect (%) of B applied alone (B): 26.2%

## CC(C)N(C)S(=O)(=O)NC(=O)c1cc(-n2c(=O)cc(C(F)(F)F)n(C)c2=O)c(F)cc1Cl [saflufenacil]
Lithospermum arvense; B 0.75 g a.i./ha
  Control effect (%) of B applied alone (B): 39.7%

## Cc1nn(-c2cc(NS(C)(=O)=O)c(Cl)cc2Cl)c(=O)n1C(F)F [sulfentrazone]
Lithospermum arvense; B 90 g a.i./ha
  Control effect (%) of B applied alone (B): 26.5%

## COC(=O)c1csc(C)c1S(=O)(=O)NC(=O)n1nc(OC)n(C)c1=O [thiencarbazone-methyl]
Malachium aquaticum; B 3 g a.i./ha
  Control effect (%) of B applied alone (B): 41.1%

## COC(=O)c1sccc1S(=O)(=O)NC(=O)Nc1nc(C)nc(OC)n1 [thifensulfuron methyl]
Malachium aquaticum; B 4.5 g a.i./ha
  Control effect (%) of B applied alone (B): 30.8%

## COC(=O)c1ccccc1S(=O)(=O)NC(=O)N(C)c1nc(C)nc(OC)n1 [tribenuron-methyl]
Malachium aquaticum; B 3 g a.i./ha
  Control effect (%) of B applied alone (B): 27.9%

## O=C(O)COc1nc(Cl)c(Cl)cc1Cl [triclopyr]
Veronica didyma Tenore; [3]
  pest or weed control at 90 g/ha: 34.2%

## C#CCN1C(=O)C(F)(F)Oc2cc(F)c(-n3c(=O)n(C)c(=S)n(C)c3=O)cc21 [trifludimoxazin]
Lithospermum arvense; B 4.5 g a.i./ha
  Control effect (%) of B applied alone (B): 31.8%

## oxadiargyl
Lithospermum arvense; B 30 g a.i./ha
  Control effect (%) of B applied alone (B): 38.7%
